Some test systems named below: OVCAR-8; SF-295; K562; SK-OV-3; SN12C; SK-MEL-2; SF-539; PC-3; HOP-62; OVCAR-5; SR; A498; RXF 393; NCI-H226; MDA-N; MCF7; HCC 2998; CAKI-1; SF-268; OVCAR-3.
What all share (assay): NCI tumour cell line growth inhibition, 48 h

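In this assay, cells in 96-well plates receive the compound at five concentrations for 48 hours. Endpoints are linearly interpolated between the surrounding concentrations. GI50 = concentration required for 50% inhibition of growth.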 Active and inactive are the calls of the source. Rule as the data show it: active = GI50 up to about 1.1 µM and inactive = higher.

In the case of `O=C(COc1ccc(OCC(=O)NNC2=NC(c3cc(F)c(Cl)cc3Cl)CS2)c(Cl)c1)NNC1=NC(c2cc(F)c(Cl)cc2Cl)CS1` (stereo not given), the GI50 was 20.8 µM (inactive) in the test with OVCAR-8; 19.8 µM (inactive) in the test with SF-295; 24 µM (inactive) in the test on K562; > 100 µM (inactive) with SK-OV-3; 20.7 µM (inactive) in the test on SN12C; 36.2 µM (inactive) in the test with SK-MEL-2. Further, the GI50 in the test on SF-539 is 28.6 µM (inactive); with PC-3 it was 22.1 µM (inactive); in the test with HOP-62 it was > 100 µM (inactive); in the test on OVCAR-5 it was 36.7 µM (inactive); in the test on SR, 35.9 µM (inactive); in the test with A498, 23.7 µM (inactive). For the same compound, the GI50 in the test on RXF 393 is 19.8 µM (inactive); in the test with NCI-H226, 19.1 µM (inactive); in the test with MDA-N, 28.4 µM (inactive); with MCF7 it was 14 µM (inactive).

Consider `Cc1cc2c(cc1C)[n+]([O-])c(C(=O)N1CCN(c3ccc([N+](=O)[O-])cc3)CC1)c(C)[n+]2[O-]`, for which the GI50 in the test on OVCAR-8 is 27.5 µM (inactive); with SF-295 it was 16.1 µM (inactive); with K562, > 100 µM (inactive); in the test on SK-OV-3, 18.2 µM (inactive); in the test on SN12C it was 63.7 µM (inactive); in the test on SK-MEL-2, 38.5 µM (inactive). Further, the GI50 was 17.7 µM (inactive) in the test on SF-539; 93.3 µM (inactive) in the test with PC-3; 12.8 µM (inactive) with HOP-62; 62.8 µM (inactive) with OVCAR-5; > 100 µM (inactive) in the test with SR; 27.2 µM (inactive) in the test with A498. In addition, the GI50 is 26.8 µM (inactive) in the test on HCC 2998; > 100 µM (inactive) in the test on CAKI-1; 14.4 µM (inactive) in the test on RXF 393; 19 µM (inactive) with SF-268; > 100 µM (inactive) in the test on OVCAR-3; > 100 µM (inactive) in the test on MDA-N. The GI50 in the test on MCF7 is > 100 µM (inactive).

With `CC(C)(C)OC(=O)N1CCC(NC(=O)NC2CCN(C(=O)OC(C)(C)C)CC2)CC1`, the GI50 in the test with OVCAR-8, in the test with SF-295, in the test on SN12C, in the test on SK-MEL-2, in the test on SF-539 and in the test with PC-3 was > 100 µM (inactive) in each case. Also, the GI50 in the test on HOP-62, in the test on OVCAR-5, with SR, in the test on A498, with HCC 2998 and in the test on CAKI-1 was > 100 µM (inactive) in each case. Further, the GI50 with SF-268, in the test on OVCAR-3, in the test on MDA-N and in the test on MCF7 was > 100 µM (inactive) each time.

For `COc1ccc2nc3cc([N+](=O)[O-])ccc3c(Nc3ccc(S(=O)(=O)Nc4ncccn4)cc3)c2c1`, the GI50 in the test with OVCAR-8 was 45.2 µM (inactive); in the test on SF-295, 99.5 µM (inactive); with K562 it was 35.4 µM (inactive); with SK-OV-3 it was > 100 µM (inactive); in the test on SN12C, > 100 µM (inactive); in the test on SK-MEL-2, > 43.4 µM (inactive). For the same compound, the GI50 in the test on SF-539 is > 100 µM (inactive); with PC-3 it was 30.6 µM (inactive); in the test with HOP-62, > 64.9 µM (inactive); in the test on OVCAR-5, > 100 µM (inactive); in the test on SR, 6.24 µM (inactive); in the test on HCC 2998 it was > 59 µM (inactive). Moreover, the GI50 in the test with CAKI-1 was > 100 µM (inactive); in the test with RXF 393, > 100 µM (inactive); in the test with SF-268, 40 µM (inactive); in the test with NCI-H226, 69.3 µM (inactive); in the test with OVCAR-3, > 50.4 µM (inactive); in the test on MDA-N, > 89.1 µM (inactive). Besides, the GI50 in the test on MCF7 was 15.3 µM (inactive).

`O=C1/C(=C/c2ccc(Cl)cc2)Sc2scc(-c3cccc([N+](=O)[O-])c3)[n+]21`: the GI50 is 7.55 µM (inactive) in the test on OVCAR-8; 11.4 µM (inactive) in the test with SF-295; 0.459 µM (active) in the test on K562; 10.5 µM (inactive) with SK-OV-3; 2.77 µM (inactive) in the test with SN12C; 12.9 µM (inactive) in the test on SK-MEL-2. In addition, the GI50 with SF-539 is 2.3 µM (inactive); in the test with PC-3, 7.5 µM (inactive); in the test on HOP-62, 19.5 µM (inactive); with OVCAR-5 it was 10.8 µM (inactive); in the test on SR, 0.296 µM (active); with HCC 2998, 2.8 µM (inactive). The GI50 in the test on CAKI-1 was 3.01 µM (inactive); with RXF 393, 2.42 µM (inactive); with SF-268, 2.95 µM (inactive); in the test with NCI-H226, 29.8 µM (inactive); in the test on OVCAR-3, 8.09 µM (inactive); with MDA-N it was 3.36 µM (inactive). Further, in the test on MCF7, the GI50 is 3.91 µM (inactive).

For `C#CC1(O)C(COP(=O)(O)OC(COCCCCCCCCCCCCCCCCCC)COP(=O)(O)OCC2OC(n3cc(C)c(=O)[nH]c3=O)CC2N=[N+]=[N-])OC(n2ccc(N)nc2=O)C1O` (stereo not given), the GI50 in the test with OVCAR-8 is 0.881 µM (active); in the test with SF-295, 0.221 µM (active); in the test with K562, 0.216 µM (active); with SK-OV-3, 4 µM (inactive); in the test with SN12C, 0.807 µM (active); in the test on SK-MEL-2, 0.382 µM (active). Moreover, the GI50 in the test with SF-539 was 0.282 µM (active); in the test with PC-3, 2.86 µM (inactive); in the test with HOP-62, 1.82 µM (inactive); with OVCAR-5 it was 3.28 µM (inactive); in the test on SR, < 0.0429 µM (active); with A498, 1.69 µM (inactive). In addition, the GI50 in the test on CAKI-1 was 0.31 µM (active); in the test on RXF 393, 1.37 µM (inactive); with SF-268 it was 0.957 µM (active); with NCI-H226, 1.56 µM (inactive); with OVCAR-3, 4.58 µM (inactive); in the test on MDA-N it was 1.14 µM (inactive). Besides, the GI50 in the test with MCF7 is 0.122 µM (active).

With `N=C(N)SCCN1CCCCC1`, the GI50 was 28.6 µM (inactive) in the test on OVCAR-8; > 100 µM (inactive) in the test on SF-295; 20 µM (inactive) in the test on K562; 46.8 µM (inactive) in the test on SK-OV-3; 26.3 µM (inactive) with SN12C; 2.98 µM (inactive) in the test with SK-MEL-2. The GI50 in the test with SF-539 is 35.7 µM (inactive); with PC-3 it was 15.9 µM (inactive); in the test with HOP-62 it was 46.5 µM (inactive); with OVCAR-5, 86.1 µM (inactive); with SR, 21 µM (inactive); in the test with A498, 48.6 µM (inactive). For the same compound, the GI50 in the test on CAKI-1 was 26.7 µM (inactive); with RXF 393 it was 16.1 µM (inactive); in the test with SF-268 it was 24.4 µM (inactive); with NCI-H226, 21.4 µM (inactive); in the test with OVCAR-3 it was 22.2 µM (inactive); in the test on MDA-N, 30.2 µM (inactive). Further, the GI50 with MCF7 was 16.6 µM (inactive).

In the case of `O=c1c2cc([N+](=O)[O-])ccc2nc2n1CCCCC2`, the GI50 in the test on OVCAR-8, in the test on SF-295, in the test with K562, in the test on SK-OV-3, in the test with SN12C and with SK-MEL-2 was > 100 µM (inactive) throughout. Also, the GI50 is > 100 µM (inactive) with SF-539; 89.3 µM (inactive) in the test with PC-3; > 100 µM (inactive) with HOP-62; > 100 µM (inactive) in the test with OVCAR-5; > 100 µM (inactive) in the test with SR; 87.9 µM (inactive) in the test with A498. Also, the GI50 in the test on CAKI-1 was 79.6 µM (inactive); in the test with RXF 393 it was > 100 µM (inactive); with SF-268, > 100 µM (inactive); in the test on NCI-H226, > 100 µM (inactive); in the test with OVCAR-3, > 100 µM (inactive); in the test on MDA-N it was > 100 µM (inactive). Further, the GI50 in the test on MCF7 is > 100 µM (inactive).

Consider `CN1C(=O)C2(C)SC1(c1ccccc1)C1C(=O)N(c3ccccc3)C(=O)C12` (stereo not given), for which the GI50 was > 100 µM (inactive) in the test with OVCAR-8; 54.6 µM (inactive) with SF-295; 57.4 µM (inactive) in the test with K562; > 100 µM (inactive) in the test with SK-OV-3; > 100 µM (inactive) in the test with SN12C; 75 µM (inactive) in the test with SK-MEL-2. Further, the GI50 in the test with SF-539 is > 100 µM (inactive); with PC-3 it was 43.4 µM (inactive); with HOP-62, > 100 µM (inactive); in the test on OVCAR-5, > 100 µM (inactive); with SR it was 64.1 µM (inactive); with A498 it was 49.9 µM (inactive). Also, the GI50 with CAKI-1 was > 100 µM (inactive); in the test with RXF 393, > 100 µM (inactive); in the test on SF-268 it was > 100 µM (inactive); with NCI-H226, 60.4 µM (inactive); in the test on OVCAR-3 it was > 100 µM (inactive); in the test with MDA-N, > 100 µM (inactive). The GI50 in the test on MCF7 is 48.5 µM (inactive).

As to `O=C1NC2NC3NC(=O)NC3NC2N1` (stereo not given), the GI50 in the test on OVCAR-8, in the test with SF-295, in the test with K562, in the test with SN12C, in the test with SK-MEL-2 and in the test on SF-539 was > 100 µM (inactive) in each case. The GI50 in the test on PC-3, in the test with HOP-62, in the test with OVCAR-5, in the test on SR, in the test with A498 and with CAKI-1 was > 100 µM (inactive) in each case. In addition, the GI50 in the test on RXF 393, in the test with NCI-H226, in the test with OVCAR-3, with MDA-N and in the test on MCF7 was > 100 µM (inactive) in each case.

As for `C=C(CBr)CCCOCc1ccccc1`, the GI50 in the test on OVCAR-8 was 17 µM (inactive); in the test with SF-295, 36.1 µM (inactive); with K562 it was 40.3 µM (inactive); in the test with SK-OV-3, 35.5 µM (inactive); with SN12C, 24.5 µM (inactive); with SK-MEL-2, 18.6 µM (inactive). The GI50 in the test with SF-539 was 19.5 µM (inactive); in the test with PC-3, 19.7 µM (inactive); with HOP-62 it was 22.2 µM (inactive); in the test on OVCAR-5, 18.7 µM (inactive); with SR, 31.3 µM (inactive); with A498 it was 35.2 µM (inactive). For the same compound, the GI50 was 5.6 µM (inactive) in the test on CAKI-1; 15.8 µM (inactive) in the test on SF-268; 15.5 µM (inactive) in the test on NCI-H226; 19.1 µM (inactive) in the test on OVCAR-3; > 10 µM (inactive) in the test with MDA-N; 30.5 µM (inactive) in the test on MCF7.
